Results from patent US8106055B2, “Substituted amide compounds” (Gruenenthal GmbH, priority 2007, dated 2012).

Assays:
[1] = target: T1, serotonin (5-HT) reuptake (Rattus norvegicus, UniProt P31652); assay: Inhibition of serotonin (5HT) reuptake in synaptosomes from rat brain; type: biochemical; conditions: test concentration of 10 μM; for inhibition at 10 µM: read-out: 5-HT (inhibition of reuptake of serotonin, % inhibition)
T1 construct: synaptosomes are freshly isolated from areas of the rat brain; from tissue; host or cells: rat brain synaptosomes (P2 fraction)
T1 sequence (P31652 whole entry): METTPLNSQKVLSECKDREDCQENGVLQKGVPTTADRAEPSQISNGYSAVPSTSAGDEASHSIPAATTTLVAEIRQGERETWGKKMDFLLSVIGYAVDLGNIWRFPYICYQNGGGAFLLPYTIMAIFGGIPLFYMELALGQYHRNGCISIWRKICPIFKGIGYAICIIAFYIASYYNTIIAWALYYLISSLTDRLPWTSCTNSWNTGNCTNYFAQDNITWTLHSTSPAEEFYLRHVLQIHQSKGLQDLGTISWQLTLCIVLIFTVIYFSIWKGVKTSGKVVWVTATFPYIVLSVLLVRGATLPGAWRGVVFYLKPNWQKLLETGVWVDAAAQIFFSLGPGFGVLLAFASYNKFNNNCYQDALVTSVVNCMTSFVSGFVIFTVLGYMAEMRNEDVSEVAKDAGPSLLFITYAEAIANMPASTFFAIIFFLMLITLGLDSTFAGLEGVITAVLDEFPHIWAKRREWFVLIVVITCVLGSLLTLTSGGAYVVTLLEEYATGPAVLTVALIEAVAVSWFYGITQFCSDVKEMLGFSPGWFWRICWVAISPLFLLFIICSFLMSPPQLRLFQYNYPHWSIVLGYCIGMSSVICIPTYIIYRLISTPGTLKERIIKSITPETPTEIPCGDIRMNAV
Outline: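 Compounds screened at 10 μM and reported as percent inhibition of serotonin uptake. Uptake measured in a freshly prepared P2 synaptosomal fraction from rat brain.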

[2] = target: T2, human bradykinin 1 receptor (B1R) (Homo sapiens, UniProt P46663); assay: Functional investigation on the human bradykinin 1 receptor (B1R), Ca2+ FLIPR assay in CHO K1 hB1R cells; type: cell-based; conditions: test substance 10 μM, Ca2+ FLIPR, CHO K1 hB1R cells; for B1R Ant. h [10 μM] % Inhibition: B1R antagonism human; for inhibition at 10 µM: CHO-K1, B1R antagonism human, read-out: B1R Ant. h [10 μM] % Inhibition
T2 construct: expressed in transfected cells; host or cells: CHO K1 cells
T2 sequence (P46663 1-353): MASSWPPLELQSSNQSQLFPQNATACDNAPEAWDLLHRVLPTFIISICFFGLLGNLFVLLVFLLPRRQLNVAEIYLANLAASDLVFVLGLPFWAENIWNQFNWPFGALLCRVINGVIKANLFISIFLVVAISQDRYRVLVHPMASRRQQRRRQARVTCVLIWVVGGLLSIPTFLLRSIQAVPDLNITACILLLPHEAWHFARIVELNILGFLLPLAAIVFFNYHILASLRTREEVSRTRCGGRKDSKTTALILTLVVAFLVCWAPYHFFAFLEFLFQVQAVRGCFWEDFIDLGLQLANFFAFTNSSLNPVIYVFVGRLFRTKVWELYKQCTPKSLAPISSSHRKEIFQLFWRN
Outline: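 Peak Ca2+-dependent fluorescence in B1R-transfected CHO K1 cells measures antagonism of an EC80 agonist challenge given 10-20 min after compound. Agonist is Lys-Des-Arg9-bradykinin for human, Des-Arg9-bradykinin for rat receptor.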

| Structure (SMILES) | 5-HT (inhibition of reuptake of serotonin, % inhibition) ([1]; 10 µM) | B1R Ant. h [10 μM] % Inhibition [2] | inhibition at 10 µM [1] | inhibition at 10 µM [2] | 5-HT (inhibition of reuptake of serotonin, % inhibition) [1] |
| --- | --- | --- | --- | --- | --- |
| COc1ccc(S(=O)(=O)N2CCCCC2COCC(=O)NCC2CCC(C(c3ccc(F)cc3)N(C)C)CC2)cc1OC (single isomer, unassigned) [Example 534] | 88% | −18% | – | – | – |
| COc1ccc(S(=O)(=O)N2CCCCC2COCC(=O)NCC2CCC(C(c3ccc(F)cc3)N(C)C)CC2)cc1OC (single isomer, unassigned) [Example 537] | 92% | −15% | – | – | – |
| COc1ccc(S(=O)(=O)N2CCCCC2CCOCC(=O)NC2CCC(C(c3cccs3)N(C)C)CC2)cc1 (stereo not shown) [Example 6, N-(4-((dimethylamino)(thiophen-2-yl)methyl)cyclohexyl)-2-(2-(1-(4-methoxyphenylsulfonyl)piperidin-2-yl)ethoxy)acetamide] | – | – | 91% | 24% | – |
| COc1ccc(S(=O)(=O)N2Cc3ccccc3CC2COCC(=O)NCC2CCC(C(c3cccs3)N(C)C)CC2)cc1 (stereo not shown) [Example 7, N-((4-((dimethylamino)(thiophen-2-yl)methyl)cyclohexyl)methyl)-2-((2-(4-methoxyphenylsulfonyl)-1,2,3,4-tetrahydroisoquinolin-3-yl)methoxy)acetamide] | – | – | 92% | 47% | – |
| CN(C)C(c1cccs1)C1CCC(CNC(=O)COCCN(C)S(=O)(=O)c2ccc(Cl)cc2Cl)CC1 (stereo not shown) [Example 8, 2-(2-(2,4-dichloro-N-methylphenylsulfonamido)ethoxy)-N-((4-((dimethylamino)(thiophen-2-yl)methyl)cyclohexyl)methyl)acetamide] | – | – | 81% | 101% | – |
| Cc1cc(C)c(S(=O)(=O)N(C)CCOCC(=O)NC2CCC(C(c3ccccc3)N(C)C)CC2)c(C)c1 (stereo not shown) [Example 63, N-(4-((dimethylamino)(phenyl)methyl)cyclohexyl)-2-(2-(N,2,4,6-tetramethylphenylsulfamido)ethoxy)acetamide] | – | 92% | – | – | 79% |
| CN(C)C(c1cccs1)C1CCC(CCNC(=O)COC2CCN(S(=O)(=O)c3cccc(C(F)(F)F)c3)C2)CC1 (stereo not shown) [Example 96, N-(2-(4-((dimethylamino)(thiophen-2-yl)methyl)cyclohexyl)ethyl)-2-(1-(3-(trifluoromethyl)phenylsulfonyl)pyrrolidin-3-yloxy)acetamide] | – | – | 81% | 4% | – |
| CN(C)C(c1cccs1)C1CCC(CNC(=O)COC2CCN(S(=O)(=O)c3ccc(F)cc3)C2)CC1 (stereo not shown) [Example 97, N-((4-((dimethylamino)(thiophen-2-yl)methyl)cyclohexyl)methyl)-2-(1-(4-fluorophenylsulfonyl)pyrrolidin-3-yloxy)acetamide] | – | – | 91% | 1% | – |
| COc1cc(C)c(S(=O)(=O)N2CCC(OCC(=O)NC3CCC(C(c4cccs4)N(C)C)CC3)C2)c(C)c1 (stereo not shown) [Example 98, N-(4-((dimethylamino)(thiophen-2-yl)methyl)cyclohexyl)-2-(1-(4-methoxy-2,6-dimethylphenylsulfonyl)pyrrolidin-3-yloxy)acetamide] | – | – | 92% | 64% | – |
| CN(C)C(c1cccs1)C1CCC(CCNC(=O)COCCN2CCN(S(=O)(=O)c3ccccc3)CC2)CC1 (stereo not shown) [Example 99, N-(2-(4-((dimethylamino)(thiophen-2-yl)methyl)cyclohexyl)ethyl)-2-(2-(4-(phenylsulfonyl)piperazin-1-yl)ethoxy)acetamide] | – | – | 95% | -8% | – |
| CN(C)C(c1cccs1)C1CCC(CCNC(=O)COC2CCCN(S(=O)(=O)c3ccccc3)C2)CC1 (stereo not shown) [Example 100, N-(2-(4-((dimethylamino)(thiophen-2-yl)methyl)cyclohexyl)ethyl)-2-(1-(phenylsulfonyl)piperidin-3-yloxy)acetamide] | – | – | 97% | -3% | – |
| CN(C)C(c1cccs1)C1CCC(CNC(=O)COCC2CCCN(S(=O)(=O)c3ccccc3)C2)CC1 (stereo not shown) [Example 101, N-((4-((dimethylamino)(thiophen-2-yl)methyl)cyclohexyl)methyl)-2-((1-(phenylsulfonyl)piperidin-3-yl)methoxy)acetamide] | – | – | 94% | 0% | – |
| CN(C)C(c1cccs1)C1CCC(CNC(=O)COCCN(Cc2ccccc2)S(=O)(=O)c2ccccc2)CC1 (stereo not shown) [Example 102, 2-(2-(N-benzylphenylsulfonamido)ethoxy)-N-((4-((dimethylamino)(thiophen-2-yl)methyl)cyclohexyl)methyl)acetamide] | – | – | 92% | -4% | – |
| CCN(CCOCC(=O)NCCC1CCC(C(c2cccs2)N(C)C)CC1)S(=O)(=O)c1c(C)cc(OC)c(C)c1C (stereo not shown) [Example 103, N-(2-(4-((dimethylamino)(thiophen-2-yl)methyl)cyclohexyl)ethyl)-2-(2-(N-ethyl-4-methoxy-2,3,6-trimethylphenylsulfonamido)ethoxy)acetamide] | – | – | 95% | 90% | – |
| COc1cc(C)c(S(=O)(=O)N2CCC(OCC(=O)NCC3CCC(C(c4cccs4)N(C)C)CC3)CC2)c(C)c1C (stereo not shown) [Example 104, N-((4-((dimethylamino)(thiophen-2-yl)methyl)cyclohexyl)methyl)-2-(1-(4-methoxy-2,3,6-trimethylphenylsulfonyl)piperidin-4-yloxy)acetamide] | – | – | 93% | 24% | – |
| COc1ccc(S(=O)(=O)N2CCCC2COCC(=O)NCC2CCC(C(c3cccs3)N(C)C)CC2)cc1 (stereo not shown) [Example 105, N-((4-((dimethylamino)(thiophen-2-yl)methyl)cyclohexyl)methyl)-2-((1-(4-methoxyphenylsulfonyl)pyrrolidin-2-yl)methoxy)acetamide] | – | – | 95% | 33% | – |
| COc1ccc(S(=O)(=O)N2CCCCC2COCC(=O)NCC2CCC(C(c3ccccc3)N(C)C)CC2)c(OC)c1 (stereo not shown) [Example 106, 2-((1-(2,4-dimethoxyphenylsulfonyl)piperidin-2-yl)methoxy)-N-((4-((dimethylamino)(phenyl)methyl)cyclohexyl)methyl)acetamide] | – | – | 85% | 4% | – |
| COc1ccc(S(=O)(=O)N2CCCCC2COCC(=O)NCCC2CCC(C(c3cccs3)N(C)C)CC2)c(OC)c1 (stereo not shown) [Example 107, 2-((1-(2,4-dimethoxyphenylsulfonyl)piperidin-2-yl)methoxy)-N-(2-(4-((dimethylamino)(thiophen-2-yl)methyl)cyclohexyl)ethyl)acetamide] | – | – | 90% | -4% | – |
| CN(C)C(c1ccccc1)C1CCC(CNC(=O)COCCN(C)S(=O)(=O)c2ccc(Cl)cc2)CC1 (stereo not shown) [Example 110, 2-(2-(4-chloro-N-methylphenylsulfonamido)ethoxy)-N-((4-((dimethylamino) (phenyl)methyl)cyclohexyl)methyl)acetamide] | – | – | 94% | 21% | – |
| COc1cc(C)c(S(=O)(=O)N(C)CCOCC(=O)NC2CCC(C(c3cccs3)N(C)C)CC2)c(C)c1 (stereo not shown) [Example 111, N-(4-((dimethylamino)(thiophen-2-yl)methyl)cyclohexyl)-2-(2-(4-methoxy-N,2,6-trimethylphenylsulfonamido)ethoxy)acetamide] | – | – | 85% | 102% | – |
